# Data from patent US11208414B2, “Ectonucleotidase inhibitors and methods of use thereof” (Calithera Biosciences, Inc., priority 2016, dated 2021).
# Biological target: recombinant CD73 (Homo sapiens (Human), UniProt P21589)
# Test: Inhibition of soluble recombinant CD73 enzyme activity (Malachite Green)
# Format: biochemical
# Conditions: recombinant CD73 0.5 nM, AMP 50 μM, 30 minutes at room temperature
# Procedure: The concentration of inorganic phosphate was determined using a phosphate standard curve.
# Chain of recombinant CD73 (P21589 27-547): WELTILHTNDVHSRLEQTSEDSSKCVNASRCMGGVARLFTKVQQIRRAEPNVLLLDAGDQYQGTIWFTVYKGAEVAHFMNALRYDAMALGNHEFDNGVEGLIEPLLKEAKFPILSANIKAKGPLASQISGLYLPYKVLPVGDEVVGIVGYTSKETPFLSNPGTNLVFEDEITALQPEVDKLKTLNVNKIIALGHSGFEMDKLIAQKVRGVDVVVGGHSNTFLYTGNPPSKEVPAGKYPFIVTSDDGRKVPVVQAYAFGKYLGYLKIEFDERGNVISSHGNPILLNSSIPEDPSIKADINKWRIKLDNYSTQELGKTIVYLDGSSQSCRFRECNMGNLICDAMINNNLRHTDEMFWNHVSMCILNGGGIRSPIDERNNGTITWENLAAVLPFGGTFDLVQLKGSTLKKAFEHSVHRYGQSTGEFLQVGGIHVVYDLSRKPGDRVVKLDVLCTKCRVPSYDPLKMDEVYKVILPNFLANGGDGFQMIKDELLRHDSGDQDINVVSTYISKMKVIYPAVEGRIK
smiles,measurement,value
"Nc1ncnc2c1ncn2[C@@H]1O[C@H](COC(C(=O)O)C(=O)O)[C@@H](O)C1F (stereo in doubt) [compound 9, 2-(((2R,3R,4R,5R)-5-(6-amino-9H-purin-9-yl)-4-fluoro-3-hydroxytetrahydrofuran-2-yl)-methoxy)malonic acid]",IC50,> 50 µM
